The target in assay [1] is Numax™. Kind of assay: Biacore kinetic analysis of F peptides on captured Numax™. Format: binding. To be noted: F peptide 100 nM over captured Numax, HBS-EP. On the procedure: All studies were performed using Sensor Chip CM5 (Biacore AB, Uppsala, Sweden) which contains a carboxymethyl (CM) dextran matrix and a Biacore®3000 surface plasmon resonance (SPR) biosensor (Biacore AB, Uppsala, Sweden).
Numax™ was captured via a high-affinity interaction between the Fc portion of Numax™ and a goat anti-human IgG(Fc) (KPL, Inc., Gaithersburg, Md.). Goat anti-human IgG(Fc) was covalently attached to the CM dextran matrix using amine coupling chemistry. Two anti-human IgG(Fc)-specific surfaces were created. Numax™ was diluted to 10.9 μg/mL with HBS-EP and flowed for 1 min. across one of the anti-human IgG (Fc) surfaces at a flow rate of 5 μL/min. The other anti-human IgG(Fc) surface was used as a reference surface. F peptide was prepared by dilution in HBS-EP (0.01 M Hepes pH 7.4, 0.15 M NaCl, 3 mM EDTA, 0.005% surfactant P20) to a final concentration of 100 nM. F peptide was injected for 1 min. in a serial-flow manner across the reference surface and the Numax™-specific surface. Dissociation of bound F peptide was monitored for 2 min in the presence of HBS-EP. After this dissociation period, Numax™ and F peptide were removed with a 30-sec injection of 10 mM glycine pH 1.7 (Biacore AB, Uppsala, Sweden). Because of the removal of Numax™, it was necessary to create a new Numax™-specific surface prior to the injection of each F peptide.
Background: SPR reads the build-up and loss of mass on a sensor chip optically.

For assay [2], the target named is MEDI-524 Fab (Homo sapiens, UniProt P01834+P01857). Kind of assay: Isothermal titration calorimetry (ITC) of F peptides with MEDI-524 Fab. The format is binding. Conditions: 18° C., 25 mM His, pH 6.07. An excerpt: Isothermal Titration calorimetry assays (ITC) have been described (see, for example, Heerklotz H et al., Biophysical Journal, May 1999). Molecular interactions are defined by stoichiometry and a few thermodynamic parameters. All binding reactions are associated with the absorption or generation of heat. Therefore calorimetry is emerging as a premier tool for the characterisation of interactions of biological macromolecules. ITC is the only method that measures equilibrium constants, enthalpy and entropy in one single experiment. If the experiment is performed at different temperatures the important parameter, the heat capacity change, can be determined. ITC has become a standard method for investigating the binding of ligands to receptor molecules. Accordingly, ligands are mixed with receptors, and the subsequent heats of incorporation (or binding) are measured.
To obtain binding constants for MEDI-524 Mab and MEDI-524 Fab fragments with F peptides constructed from F protein sequences, ITC was performed.
For this set of experiments, […] (1.16 μM-148.4 KDa) of MEDI-524 Mab and 0.088 mg/mL (1.88 μM-46.3 KDa) of MEDI-524 Fab, both in 25 mM His, pH 6.07 were used. On the other hand, 250 μl of lmg/mL of the different peptides dissolved in H2O, were provided by ABC. The peptides were then diluted into the appropriate volume of buffer to give a final concentration of 50 μM. The ITC experiments were run at 18° C. with the macromolecule (Mab or Fab) in the cell, by doing ˜26 injections of 10 μL of peptides, spaced 360 sec with constant stirring. The data fitting was accomplished by subtracting the average value of the few last injections as the buffer and unspecific heat of dilution contributions. […] A note apart is the fact that the observed binding capacity (N) increases with the length of the peptide, indicating possibly an extra conformational factor in the binding event. The entropic contribution: For the peptides SEQ ID NOs.24 and 26, the entropic factor seems to be similar; the extra amino acids at the end of the N-terminal seem not to affect greatly the binding parameters. On the other hand, the elongation at the C-terminal seems to decrease slightly the binding enthalpy, the binding constant, as well as the entropic factor. The binding capacity seems to be increased in the cases where the 30-mer peptides were used (SEQ ID Nos. 25 and 26), when compare to the SEQ ID NO.24 peptide, possibly due to the longer extent of the whole peptides. The binding constant seems to be smaller (weaker) for both 30-mer peptides respect to the 26-mer.

“And” between values parts separate entries of the source, which are not always exact repeats. Equal values may be shown once.

Sequence of Numax™ (as listed by the source): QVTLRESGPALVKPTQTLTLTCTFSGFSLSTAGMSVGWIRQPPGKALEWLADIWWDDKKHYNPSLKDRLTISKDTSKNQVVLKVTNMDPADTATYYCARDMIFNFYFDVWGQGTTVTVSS
Sequence of Numax™ (as listed by the source): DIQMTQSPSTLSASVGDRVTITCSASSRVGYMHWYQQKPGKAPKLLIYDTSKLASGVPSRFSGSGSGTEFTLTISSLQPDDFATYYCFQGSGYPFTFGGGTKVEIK
Sequence of MEDI-524 Fab (P01857 with tags, fused parts or gaps limits assumed, other chains not shown): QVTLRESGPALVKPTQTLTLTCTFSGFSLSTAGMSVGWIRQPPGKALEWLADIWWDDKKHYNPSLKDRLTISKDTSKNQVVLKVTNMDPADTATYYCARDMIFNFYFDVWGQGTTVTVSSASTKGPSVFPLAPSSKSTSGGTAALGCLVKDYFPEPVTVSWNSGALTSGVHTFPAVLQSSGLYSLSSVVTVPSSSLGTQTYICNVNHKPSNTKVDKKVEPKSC

As a reminder, the Kd is a measure of binding affinity in units of concentration. “NSELLSLIHDMPITNDQKKLMSNNVQIVRQ [SEQ ID NO: 25]”: in assay [1], the Kd is 7.23 nM and 5.44 nM; the ka is 2.50E+05 and 3.62E+05; the kd was 1.81E−03 and 1.97E−03. In assay [2], the “Ka (association constant)” value is 6.5e+06 M⁻¹, the ΔHbinding was -10.4 kcal/mol and the ΔSbinding is given as −4.7.
In assay [1], “NSELLSLINDMPITNDQKKLMSNN(X-orn)C [SEQ ID NO: 24]” registered a Kd of 2.29 nM, a ka of 1.06E+05 and a kd of 2.42E−04. Moreover, in assay [2], the “Ka (association constant)” value was found to be 1.3e+07 M⁻¹, the ΔHbinding was -12.8 kcal/mol and the ΔSbinding is −11.4.
Regarding “NSELLSLINDMPITNDQKKLMSNNC [SEQ ID NO: 27]”, in assay [1], the affinity, expressed as Kd, was 20.4 nM; the ka is 2.70E+05; the kd turned out to be 5.50E−03.
For “STYMLTNSELLSLIHDMPITNDQKKLMSNN [SEQ ID NO: 26]”, in assay [1], the affinity, expressed as Kd, was 22.7 nM; the ka amounted to 2.43E+05; the kd is listed as 5.52E−03. Also, in assay [2], the “Ka (association constant)” value turned out to be 7.1e+06 M⁻¹, the ΔHbinding is -11.4 kcal/mol and the ΔSbinding is listed as −8.1.

For the origin of these results see patent US9499590B2, “Antibodies against and methods for producing vaccines for respiratory syncytial virus” (MEDIMMUNE, LLC, priority 2009, dated 2016).
